# Laboratory results as given in article PMC3105312 (Nature Communications, 2011).
# Target: PspF1-275 (Escherichia coli, UniProt P37344)
# Details: 10 μM protein, pH 8.0, on ice; labelled compound; comparative control
# PspF1-275, sequence (P37344 1-275): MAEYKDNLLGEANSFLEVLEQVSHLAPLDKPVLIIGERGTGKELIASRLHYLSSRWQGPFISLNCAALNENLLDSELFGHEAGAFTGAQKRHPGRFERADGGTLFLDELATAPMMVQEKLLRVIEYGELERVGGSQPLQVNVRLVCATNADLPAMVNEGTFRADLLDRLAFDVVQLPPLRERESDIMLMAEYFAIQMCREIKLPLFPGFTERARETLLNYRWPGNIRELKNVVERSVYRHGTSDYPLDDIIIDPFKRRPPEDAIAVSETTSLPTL
smiles,measurement,value
Nc1ncnc2c1ncn2[C@@H]1O[C@H](COP(=O)(O)OP(=O)(O)OP(=O)(O)O)[C@@H](O)[C@H]1O [ATP],"ultraviolet crosslinking of [α-32P]ATP, SDS-PAGE, phosphorimaging",at a level comparable to that of the structurally and functionally characterized EBP PspF
